# Measured values reported in BindingDB's records for doi:10.1021/jm00011a008 (Upjohn, 1995).
# pKi: −log10 of the molar value.
# Molecular target: T1, Dimer of Gag-Pol polyprotein [489-587] (Human immunodeficiency virus 1, UniProt P12497)
# T1 construct: 489-587
# Experiment: Protease Inhibition Assay
# Details: pH 5; 22 °C
# Description: HIV-1 protease was purified and refolded from E. coli inclusion bodies. […] In the presence of HIV-l protease, the substrate is rapidly cleaved into two parts. The biotinylated amino terminal fragment binds to the avidin beads while the FITC-containing carboxy1 terminal fragment is removed through the membrane. […] The bound fluorescence is obtained by processing on an IDEXX Screen Machine. Determination of Ki values with this assay requires analysis under conditions in which substrate concentration resides substantially below Km and the inhibitor concentrations greatly exceeds the Ki value and the enzyme concentration.
row,Structure (SMILES),pKi
1,"CCCC(c1ccccc1)c1c(O)c2c(oc1=O)CCCCCC2 (stereo not given) [4-hydroxy-3-(1-phenylbutyl)-2H,5H,6H,7H,8H,9H,10H-cycloocta[b]pyran-2-one]",7.54
2,"CCCCC(c1ccccc1)c1c(O)c2c(oc1=O)CCCCCC2 (stereo not given) [5,6,7,8,9,10-Hexahydroro-4-hydroxy-1-phenylpentyl)-W-cycloocta[blpyran-2-one]",7.21
3,"CC(C)CC(c1ccccc1)c1c(O)c2c(oc1=O)CCCCCC2 (stereo not drawn) [5,6,7,8,9,1O-Hexahydro-4-hydroxy-3-(3-methyl-l-phe-nylbutyl)-W-cycloocta[b]pyran-2-one]",7.05
4,"CC(C)C(c1ccccc1)c1c(O)c2c(oc1=O)CCCCCC2 (stereo not given) [5,6,7,8,9,1O-Hexahydro-4-hydroxy-3-(2-methyl-nylpropyl)-W-cycloocta[b]pyran-2-one]",7.66
5,"O=c1oc2c(c(O)c1C(c1ccccc1)c1ccccc1)CCCCCC2 [3-(Diphenylmethyl)-5,6,7,8,9,1O-hexahydro-4-hydroxy-W-cycloocta[b]pyran-2-one]",6.74
